Measurements reported in ChEMBL document CHEMBL1127882, “Synthesis of coumarins as subtype-selective inhibitors of monoamine oxidase” (Bioorg Med Chem Lett, 1994).

How the values were obtained:
[1] = target: T1, Amine oxidase [flavin-containing] B (Rattus norvegicus, UniProt P19643); test: In vitro inhibitory activity against monoamine oxidase B (MAO-B) in rat brain homogenate.; type: tissue-based
T1 sequence (P19643 whole entry): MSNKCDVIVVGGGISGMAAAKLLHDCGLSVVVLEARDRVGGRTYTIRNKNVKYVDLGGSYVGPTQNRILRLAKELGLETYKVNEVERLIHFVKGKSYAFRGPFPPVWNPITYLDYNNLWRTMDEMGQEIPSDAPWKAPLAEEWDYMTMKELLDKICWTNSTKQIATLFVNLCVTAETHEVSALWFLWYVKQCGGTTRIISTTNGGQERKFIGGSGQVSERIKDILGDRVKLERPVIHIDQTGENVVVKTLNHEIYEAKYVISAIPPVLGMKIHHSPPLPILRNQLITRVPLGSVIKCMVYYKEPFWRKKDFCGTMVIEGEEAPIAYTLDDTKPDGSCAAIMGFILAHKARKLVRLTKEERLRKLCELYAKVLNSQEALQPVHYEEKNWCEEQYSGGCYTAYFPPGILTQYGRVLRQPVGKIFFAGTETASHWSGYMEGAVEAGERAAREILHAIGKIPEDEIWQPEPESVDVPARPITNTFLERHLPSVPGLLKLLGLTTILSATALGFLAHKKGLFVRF

[2] = target: T2, Amine oxidase [flavin-containing] A (Rattus norvegicus, UniProt P21396); test: In vitro inhibitory against monoamine oxidase A (MAO-A) in rat brain homogenate.; type: tissue-based
T2 sequence (P21396 whole entry): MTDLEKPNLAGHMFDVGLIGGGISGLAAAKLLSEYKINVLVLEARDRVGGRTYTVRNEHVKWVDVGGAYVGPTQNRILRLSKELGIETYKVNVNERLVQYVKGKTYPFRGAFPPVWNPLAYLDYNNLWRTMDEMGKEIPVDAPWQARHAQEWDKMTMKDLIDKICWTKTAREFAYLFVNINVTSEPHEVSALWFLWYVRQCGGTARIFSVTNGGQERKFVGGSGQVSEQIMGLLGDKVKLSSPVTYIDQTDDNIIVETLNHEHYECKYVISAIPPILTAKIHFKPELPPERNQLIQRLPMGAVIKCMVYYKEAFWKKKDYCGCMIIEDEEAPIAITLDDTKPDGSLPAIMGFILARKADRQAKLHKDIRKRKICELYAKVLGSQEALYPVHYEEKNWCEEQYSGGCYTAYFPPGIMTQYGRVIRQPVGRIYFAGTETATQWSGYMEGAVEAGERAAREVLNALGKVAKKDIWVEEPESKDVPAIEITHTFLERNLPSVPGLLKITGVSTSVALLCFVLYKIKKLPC

In the case of `CCCCCS(=O)(=O)Oc1ccc2c(C)c(C)c(=O)oc2c1`, the IC50 [1] is reported as 2200 nM and the IC50 [2] is reported as 16 nM.

For `COc1ccc2c(C)c(C)c(=O)oc2c1`, the IC50 [1] was 0.5 nM and the IC50 [2] was 71 nM.

For `Cc1c(C)c2ccc(OCc3cc(C4CC4)on3)cc2oc1=O`, the IC50 [1] was 0.8 nM and the IC50 [2] was 7000 nM.

`Cc1c(C)c2ccc(OCc3ccccn3)cc2oc1=O` showed an IC50 [1] of 9 nM and an IC50 [2] of 1800 nM.

Work on `Cc1c(C)c2ccc(OCc3nc(C(C)C)no3)cc2oc1=O` yielded an IC50 [2] greater than 10000 nM.

`Cc1c(C)c2ccc(O)cc2oc1=O` was tested, and the IC50 [1] was greater than 10000 nM and the IC50 [2] was roughly 10000 nM.

`Cc1c(C)c2ccc(OC(C)c3ccc(C(C)C)cc3)cc2oc1=O` (stereo not given) showed an IC50 [1] of 10000 nM and an IC50 [2] greater than 10000 nM.

With `Cc1c(C)c2ccc(OS(C)(=O)=O)cc2oc1=O` the IC50 [1] was greater than 10000 nM.

Work on `CCS(=O)(=O)Oc1ccc2c(C)c(C)c(=O)oc2c1` [ESUPRONE] yielded an IC50 [1] of 5000 nM.

`Cc1c(C)c2ccc(OCc3ccc(C(C)C)cc3)c(C)c2oc1=O` was tested, and the IC50 [1] was greater than 10000 nM and the IC50 [2] was greater than 10000 nM.

With `COc1cc(Br)c2oc(C3CCNCC3)cc2c1` [BROFAROMINE] the IC50 [2] was 5 nM.

In the case of `CCCCCCCCS(=O)(=O)Oc1ccc2c(C)c(C)c(=O)oc2c1`, the IC50 [1] is reported as greater than 10000 nM.

`Cc1nnc(COc2ccc3c(C)c(C)c(=O)oc3c2)o1` gave an IC50 [1] of 15 nM and an IC50 [2] of 5600 nM.

For `Cc1c(C)c2ccc(OCc3csc(C(C)C)n3)cc2oc1=O`, the IC50 [1] was 1.4 nM and the IC50 [2] was 10000 nM.

Work on `Cc1c(C)c2ccc(OCc3nnc(C(C)C)s3)cc2oc1=O` [ATIBEPRONE] yielded an IC50 [1] of 0.9 nM and an IC50 [2] greater than 10000 nM.
